The values that follow come from patent US6337397B1, “Pyrimidine derivatives and their salts, useful for making benzoxazepine derivatives” (Suntory Limited, priority 1995, dated 2002).

For one assay, the system named is male Wistar rats. Nature of the assay: Anticonflict action, NaCl-Lick conflict method. The class given is in vivo. The conditions noted are these: Rattus norvegicus, po, 1 hour before the test; number of licks in 5 minutes of 2% saline; rats deprived of water for 48 hours; read-out: Minimum effective dosage. Here is the method:
The anticonflict action of the compounds of the general formulae (I), (II), and (III) was evaluated in accordance with the NaCl-Lick conflict method of Tanga et al. (Pharmacol., Biochem., Behav., vol. 32, pp. 773-776, 1989). That is, six-week old male Wistar rats in groups of six to 10 were deprived of water for 48 hours and placed in an experimental apparatus placed in a soundproof box (apparatus made of acrylic resin, 20×20×30 cm, provided with a drinking outlet having a diameter of 1 cm at height of 8 cm from the floor, designed to be able to measure the number of drops per unit hour by a drinkometer), and the anticonflict action of the medicament was evaluated using as an indicator the number of drops (number of licks) in 5 minutes from the start of drinking of 2% saline. The tested medicament was orally administered in an amount of 0.2 ml/100 g body weight 1 hour before the start of the test.

Assay [1] has as its target T1, serotonin 5-HT1A receptor (Rattus norvegicus, UniProt P19327).
T1 construct: the hippocampuses extracted from male Wistar rats were homogenized; from tissue; host or cells: rat hippocampus membrane homogenate
T1 sequence (P19327 1-422): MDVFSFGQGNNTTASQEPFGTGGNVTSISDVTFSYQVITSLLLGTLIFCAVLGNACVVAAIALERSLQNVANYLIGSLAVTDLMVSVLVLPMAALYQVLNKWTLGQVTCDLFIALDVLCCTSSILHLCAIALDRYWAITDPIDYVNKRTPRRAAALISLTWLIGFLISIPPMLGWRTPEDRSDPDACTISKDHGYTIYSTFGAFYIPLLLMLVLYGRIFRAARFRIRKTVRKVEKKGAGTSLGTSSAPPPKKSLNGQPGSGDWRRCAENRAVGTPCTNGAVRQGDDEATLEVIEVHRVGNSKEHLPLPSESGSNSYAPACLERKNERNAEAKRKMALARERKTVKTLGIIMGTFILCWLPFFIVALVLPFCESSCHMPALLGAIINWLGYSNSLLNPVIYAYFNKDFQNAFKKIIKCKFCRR
Nature of the assay: Affinity with serotonin receptor, [3H]8-OH-DPAT binding. More on the design: species or system male Wistar rats. To be noted: for D2/5-HT1A: ratio of IC50 (D2) to IC50 (5-HT1A). As to the method: The affinity of the compounds of the general formulas (I), (II), and (III) with a serotonin receptor was evaluated in accordance with the method of S. T. Peuroutka et al. (J. Neurochem., vol. 47, pp. 529-540, 1986). That is, the hippocampuses extracted from male Wistar rats were homogenized while adding 50 mM tris-phosphate buffer (pH 7.7). The homogenate was centrifuged at […] and 40000×g for 10 minutes. The same buffer was added to the obtained precipitate, then this was homogenized again and was similarly centrifuged to obtain the precipitate. This homogenization-centrifugation operation was repeated two times to obtain a final precipitate to which was then added 10 uM of N-methyl-N-2-propynylbenzylamine (Pargyline), 4 mM of calcium chloride, and 0.1% ascorbic acid contained in a 50 mM tris-phosphate buffer (ph 7.7). This was then homogenized to prepare the serotonin receptor.
For the binding experiment, 0.4 nM of [3H]2-di-n-propylamino-8-hydroxy-1,2,3,4-tetrahydronapthalene (8-DPAT; 8-hydroxy-N,N-dipropyl-2-aminotetetrilin) was used, various concentrations of test samples were added to a system of 0.25 mg/ml of protein or a total of 0.25 ml, and these were incubated at 25° C. for 30 minutes. A Whatman GF/C filter was used to filter each of the reaction solutions, then the filter was washed by 20 mM tris-phosphate buffer (pH 7.7). The serotonin receptor was trapped by the filter and the radio activity of the 8-OH-DAPT bonded to it was measured to find the degree of binding. The 50% inhibiting concentration of binding affinity (IC50) was calculated from the degrees of binding in the various sample concentrations. […] The IC50 values of typical compounds are shown together with the IC50 values with respect to the dopamine D2 receptor.

The target in another assay is T2, dopamine D2 receptor (Rattus norvegicus, UniProt P61169).
T2 construct: the corpus striatums excised from male Wistar rats were homogenized; from tissue; host or cells: rat corpus striatum membrane homogenate
Briefly: Affinity with dopamine D2 receptor, [3H]Raclopride binding. To be noted: 1.0 nM [3H]Raclopride, rat corpus striatum preparation, 25° C., 60 minutes. More on the design: species or system male Wistar rats. Here is the method: The affinity of the compounds of the general formulas (I), (II), and (III) with a dopamine D2 receptor was evaluated in accordance with the method of Kakohler et al. (Biochem. Pharmacol., vol. 34, pp. 2251-2259, 1985). That is, the corpus striatums excised from male Wistar rats were homogenized with the addition of 120 mM sodium chloride, 5 mM potassium chloride, 2 mM calcium chloride, 1 mM magnesium chloride, and 0.01% ascorbic acid contained in 50 mM tris-phosphate buffer (pH 7.7). The homogenate was centrifuged at […] and 35000×g for 10 minutes. The same buffer was added to the resultant precipitate,then this was homogenized again and was similarly centrifuged to obtain the precipitate. The same buffer was added to this precipitate which was then again homogenized to prepare the dopamine D2 receptor.
For the binding experiment, use was made of 1.0 nM of [3H]3,5-dichloro-N-[(1-ethyl-2-pyrrolidinyl)methyl]-6-hydroxy-o-anisamide (Raclopride), various concentrations of test samples were added to a system of 0.34 mg/ml of protein or a total of 0.25 ml, incubation was performed at 25° C. for 60 minutes, then the radioactivity was measured in the same way as in the Evaluation Example 1 to find the degree of binding.
The 50% inhibiting concentration of binding affinity (IC50) was calculated from the degrees of binding at various concentrations of the added samples. […] The IC50 values of typical compounds are shown together with the IC50 values for the serotonin receptor.

The test system of another assay is Wistar male rats. Nature of the assay: Ischemic brain tissue damage, transient right middle cerebral artery occlusion (MCAO) model. The class given is in vivo. To be noted: Rattus norvegicus, sc, 240 h; s.c., immediately after occlusion; 60 minutes occlusion; brain tissue damage 10 days after restart of blood flow (number of benzodiazepine bindings); read-out: Minimum effective dosage. As to the method:
The evaluation of the efficacy on ischemic brain damage of the compounds of the general formulae (I), (II), and (III) was performed using the transient right middle cerebral artery occlusion (MCAO) model of Koizumi et al. (Jap. J. Stroke, vol. 8, pp. 1 to 8, 1986). That is, 10 to 11 week old Wistar male rats were used and the right middle cerebral artery was temporarily obstructed for 60 minutes. 10 days after the restart of the blood flow, the brains were excised and the degree of brain tissue damage of the cerebral cortex and corpus striatum of the obstructed side were evaluated by the damage marker of the number of benzodiazepine bindings. The tested drugs were dissolved in physiological saline and administered subcutaneously at the backs of the rats immediately after the right middle cerebral artery occlusion. As a control, physiological saline of […] body weight was similarly administered.

Setting [2] is: 0.4 nM [3H]8-OH-DPAT, rat hippocampus preparation, 25° C., 30 minutes, read-out: IC50 (5-HT1A).

Like-named read-outs stand apart in the source and are kept apart here.

T2 sequence (P61169 whole entry): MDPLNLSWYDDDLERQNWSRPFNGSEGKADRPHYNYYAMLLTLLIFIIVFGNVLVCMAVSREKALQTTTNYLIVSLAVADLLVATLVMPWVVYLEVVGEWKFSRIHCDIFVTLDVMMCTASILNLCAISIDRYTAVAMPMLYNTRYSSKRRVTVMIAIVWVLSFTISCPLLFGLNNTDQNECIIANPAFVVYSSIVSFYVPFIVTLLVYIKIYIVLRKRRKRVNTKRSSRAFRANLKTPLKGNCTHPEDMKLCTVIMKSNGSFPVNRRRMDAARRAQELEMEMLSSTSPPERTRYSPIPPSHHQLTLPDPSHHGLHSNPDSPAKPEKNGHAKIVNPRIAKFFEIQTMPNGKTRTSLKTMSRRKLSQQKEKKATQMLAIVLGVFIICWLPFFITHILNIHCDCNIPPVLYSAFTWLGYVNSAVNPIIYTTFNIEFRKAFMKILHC

For `CCC1=COc2ccccc2C(=O)N1CCCCN1CCN(c2ccccn2)CC1` [Example 36, 4,5-dihydro-3-ethyl-4-(4-(4-(2-pyridyl)piperazin-1-yl)butyl)-1,4-benzoxazepin-5-one], the minimal effective dose in the assay on male Wistar rats is 30 mg/kg.

Broadly, the IC50 is the concentration needed to halve the response being measured. `CC1=COc2ccc(F)cc2C(=O)N1CCCCN1CCN(c2cccc(Cl)n2)CC1` [Example 41, 4-(4-(4-(2-chloropyridin-6-yl)piperazin-1-yl)butyl)-4,5-dihydro-7-fluoro-3-methyl-1,4-benzoxazenin-5-one]: the 50% inhibitory concentration (IC50) in assay [1] (setting [2]) turned out to be 1.7 nM; on dopamine D2 receptor it was 266 nM. Moreover, the D2/5-HT1A in assay [1] was 156. For the same molecule, the minimal effective dose in the assay with male Wistar rats is 10 mg/kg.

For the molecule `O=C1c2ccccc2OC=C(Cl)N1CCCCN1CCN(c2ncnc3ccccc23)CC1` [Example 47, 3-chloro-4,5-dihydro-4-(4-(4-(4-quinazolyl)piperazin-1-yl)butyl)-1,4-benzoxazepin-5-one], the IC50 in assay [1] (setting [2]) turned out to be 3.8 nM; at dopamine D2 receptor, 1390 nM. The D2/5-HT1A in assay [1] is 366.

Consider `Cc1ccc2c(c1)C(=O)N(CCCCN1CCN(c3ncccn3)CC1)C(Cl)=CO2` [Example 49, 3-chloro-4,5-dihydro-7-methyl-4-(4-(4-(2-pyrimidinyl)-piperazin-1-yl)butyl)-1,4-benzoxazepin-5-one], for which the figures for the half-maximal inhibitory concentration (IC50) (in assay [1] (setting [2]); at dopamine D2 receptor) were 0.88 nM and 405 nM, respectively. In addition, the D2/5-HT1A in assay [1] was determined as 460.

For `CC1=COc2ccccc2C(=O)N1CCCCN1CC=C(c2ncccn2)CC1` [Example 53, 4,5-dihydro-3-methyl-4-(4-(4-(2-pyrimidinyl)-1,2,5,6-tetrahydropyridin-1-yl)butyl)-1,4-benzoxazepin-5-one], in assay [1], the IC50 came to 11 nM and the D2/5-HT1A came to 89. For the same molecule, on dopamine D2 receptor, the IC50 came to 979 nM.

For the molecule `CC1=COc2ccccc2C(=O)N1CCCCN1CCC(c2ncccn2)CC1` [Example 54, 4,5-dihydro-3-methyl-4-(4-(4-(2-pyrimidinyl)piperidin-1-yl)butyl)-1,4-benzoxazepin-5-one], the minimal effective dose in the assay with male Wistar rats was found to be 10 mg/kg.

For `CC1=COc2ccc(F)cc2C(=O)N1CCCCN1CC=C(c2ncccn2)CC1` [Example 55, 4,5-dihydro-7-fluoro-3-methyl-4-(4-(4-(2-pyrimidinyl)-1,2,5,6-tetrahydropyridin-1-yl)butyl)-1,4-benzoxazepin-5-one], in assay [1], the IC50 is 13 nM and the D2/5-HT1A was found to be 96. This molecule yielded an IC50 on dopamine D2 receptor of 1250 nM.

On to `O=C1c2ccccc2OC=C(Cl)N1CCCCN1CCC(c2ncccn2)CC1` [Example 57, 3-chloro-4,5-dihydro-4-(4-(4-(2-pyrimidinyl)piperidin-1-yl)butyl)-1,4-benzoxazepin-5-one], for which the values for the half-inhibitory concentration (IC50) (in assay [1] (setting [2]); at dopamine D2 receptor) were 5.81 nM and 1800 nM, respectively. Moreover, in assay [1], the D2/5-HT1A stood at 310.

As for `O=C1c2ccc(Cl)cc2OC=C(Cl)N1CCCCN1CC=C(c2ncccn2)CC1` [Example 59, 3,8-dichloro-4,5-dihydro-4-(4-(4-(2-pyrimidinyl)-1,2,5,6-tetrahydropyridin-1-yl)butyl)-1,4-benzoxazepin-5-one], the minimal effective dose in the assay on Wistar male rats is 1 mg/kg. Also, in assay [1], the IC50 is 0.65 nM and the D2/5-HT1A was 525. The IC50 at dopamine D2 receptor was found to be 341 nM.

`O=C1c2ccc(Cl)cc2OC=C(Cl)N1CCCCN1CCC(c2ncccn2)CC1` [Example 60, 3,8-dichloro-4,5-dihydro-4-(4-(4-(2-pyrimidinyl)piperidin-1-yl)butyl)-1,4-benzoxazepin-5-one]: the minimal effective dose in the assay with Wistar male rats came out at 1 mg/kg. Further, the 50% inhibitory concentration (IC50) in assay [1] (setting [2]) was 1.11 nM; on dopamine D2 receptor, 1280 nM. For the same molecule, in assay [1], the D2/5-HT1A is 1153.

Regarding `COc1ccc2c(c1)OC=C(Cl)N(CCCCN1CC=C(c3ncccn3)CC1)C2=O` [Example 61, 3-chloro-4,5-dihydro-8-methoxy-4-(4-(4-(2-pyrimdinyl)-1,2,5,6-tetrahydropyridin-1-yl)butyl)-1,4-benzoxazepin-5-one], the minimal effective dose in the assay with Wistar male rats was determined as 1 mg/kg. Further, the concentration for half-maximal inhibition (IC50) was 0.68 nM in assay [1] and 256 nM at dopamine D2 receptor. In assay [1], the D2/5-HT1A was determined as 376.

Consider `O=C1c2ccc(Cl)cc2OC=C(Cl)N1CCCCN1CC=C(c2ccccn2)CC1` [Example 66, 3,8-dichloro-4,5-dihydro-4-(4-(4-(2-pyridyl)-1,2,5,6-tetrahydropyridin-1-yl)butyl)-1,4-benzoxazepin-5-one], for which the IC50 in assay [1] was determined as 0.58 nM; on dopamine D2 receptor, 128 nM. In addition, the D2/5-HT1A in assay [1] came to 221.

Take `O=C1c2ccc(Cl)cc2OC=C(Cl)N1CCCCN1CCC(c2ccccn2)CC1` [Example 67, 3,8-dichloro-4,5-dihydro-4-(4-(4-(2-pyridyl)piperidin-1-yl)butyl)-1,4-benzoxazepin-5-one]: the IC50 in assay [1] (setting [2]) amounted to 0.44 nM; at dopamine D2 receptor, 359 nM. In addition, the D2/5-HT1A in assay [1] was 816.

Take `CC1=COc2ccc(C)cc2C(=O)N1CCCCN1CC=C(c2ccccn2)CC1` [Example 74, 4,5-dihydro-3,7-dimethyl-4-(4-(4-(2-pyridyl)-1,2,5,6-tetrahydropyridin-1-yl)butyl)-1,4-benzoxazepin-5-one]: the IC50 in assay [1] stood at 4.41 nM; at dopamine D2 receptor, 338 nM. Further, in assay [1], the D2/5-HT1A came to 77.

As to `CC1=COc2ccccc2C(=O)N1CCCCN1CC=C(c2ccccn2)CC1` [Example 84, 4,5-dihydro-3-methyl-4-(4-(4-(2-pyridyl)-1,2,5,6-tetrahydropyridin-1-yl)butyl)-1,4-benzoxazepin-5-one], in the assay with Wistar male rats, the minimal effective dose is 0.3 mg/kg.
